Data reported in the NIST ThermoML archive (doi:10.1021/je100638g).

Assays:
[1] = Molar enthalpy of transition or fusion; details: Crystal; DSC
[2] = for mass density / viscosity: 100 kPa, Liquid; for Normal melting temperature: Crystal, DTA
[3] = xn = mol fraction of the nth substance listed; details: 100 kPa, Liquid

CCCn1cc[n+](C)c1.F[P-](F)(F)(F)(F)F [1-methyl-3-propylimidazolium hexafluorophosphate]
Details	Molar enthalpy of transition or fusion [kcal/mol]	Normal melting temperature [°C]
[1]	3.99	–
[2]	–	38.5

[2]
Details	mass density [kg/m3]	viscosity [mPa·s]
318.15 K	1397.5	85.01
323.15 K	1393.2	68.18
328.15 K	1389	55.46
333.15 K	1384.7	45.7
338.15 K	1380.5	38.09
343.15 K	1376.3	32.1
348.15 K	1372.1	27.32
353.15 K	1367.9	23.47
358.15 K	1363.8	20.34
363.15 K	1359.6	17.77

CCCn1cc[n+](C)c1.F[P-](F)(F)(F)(F)F [1-methyl-3-propylimidazolium hexafluorophosphate] + O
[3], x2 = 0.306
Details	mass density [kg/m3]	viscosity [mPa·s]
303.15 K	1389.2	39.41
308.15 K	1384.7	32.25
313.15 K	1380.2	26.84
318.15 K	1375.7	22.61
323.15 K	1371.3	19.29
328.15 K	1366.9	16.58
333.15 K	1362.5	14.39
338.15 K	1358.1	12.61
343.15 K	1353.8	11.13
348.15 K	1349.4	9.905
353.15 K	1345.1	8.874
358.15 K	1340.8	7.983
363.15 K	1336.5	7.228

CCCc1ccc[n+](C)c1.F[P-](F)(F)(F)(F)F [1-methyl-3-propylpyridinium hexafluorophosphate]
Details	Molar enthalpy of transition or fusion [kcal/mol]	Normal melting temperature [°C]
[1]	3.59	–
[2]	–	38.1

[2]
Details	mass density [kg/m3]	viscosity [mPa·s]
318.15 K	1365.4	132.87
323.15 K	1361.3	102.17
328.15 K	1357.3	79.97
333.15 K	1353.2	63.67
338.15 K	1349.2	51.52
343.15 K	1345.2	42.29
348.15 K	1341.2	35.16
353.15 K	1337.2	29.58
358.15 K	1333.2	25.15
363.15 K	1329.2	21.59

CCCc1ccc[n+](C)c1.F[P-](F)(F)(F)(F)F [1-methyl-3-propylpyridinium hexafluorophosphate] + O
[3], x2 = 0.249
Details	mass density [kg/m3]	viscosity [mPa·s]
303.15 K	1362.5	73.39
308.15 K	1358.3	57.55
313.15 K	1354	45.98
318.15 K	1349.8	37.36
323.15 K	1345.6	30.81
328.15 K	1341.4	25.75
333.15 K	1337.2	21.76
338.15 K	1333.1	18.6
343.15 K	1328.9	16.04
348.15 K	1324.8	13.98
353.15 K	1320.7	12.28
358.15 K	1316.6	10.86
363.15 K	1312.5	9.677
